Read-outs that look alike come from different tables or passages of the source.
Experiments:
[1] = molecular target: T1, recombinant human CB1 receptor (Homo sapiens, UniProt P21554); test: Cannabinoid Receptor-1 (CB1) Binding Assay
T1 construct: expressed in transfected cells; host or cells: CHO cells (membranes)
Method: Binding affinity determination is based on recombinant human CB1 receptor expressed in Chinese Hamster Ovary (CHO) cells (Felder et al, Mol. Pharmacol. 48: 443-450, 1995). Total assay volume is 250 μl (240 μl CB1 receptor membrane solution plus 5 μl test compound solution plus 5 μl [3H]CP-55940 solution). Final concentration of [3H]CP-55940 is 0.6 nM. Binding buffer contains 50 mM Tris-HCl, pH7.4, 2.5 mM EDTA, 5 mM MgCl2, 0.5 mg/mL fatty acid free bovine serum albumin and protease inhibitors (Cat#P8340, from Sigma). To initiate the binding reaction, 5 μl of radioligand solution is added, the mixture is incubated with gentle shaking on a shaker for 1.5 h at 30° C. The binding is terminated by using 96-well harvester and filtering through GF/C filter presoaked in 0.05% polyethylenimine. The bound radiolabel is quantitated using scintillation counter. Apparent binding affinities for various compounds are calculated from IC50 values (DeBlasi et al., Trends Pharmacol Sci 10: 227-229, 1989).

[2] = molecular target: T2, recombinant human CB1 receptor expressed in CHO cells (Homo sapiens, UniProt P21554); test: Cannabinoid Receptor-1 (CB1) Functional Antagonist Assay; format: cell-based; details: cAMP
T2 sequence (P21554 whole entry): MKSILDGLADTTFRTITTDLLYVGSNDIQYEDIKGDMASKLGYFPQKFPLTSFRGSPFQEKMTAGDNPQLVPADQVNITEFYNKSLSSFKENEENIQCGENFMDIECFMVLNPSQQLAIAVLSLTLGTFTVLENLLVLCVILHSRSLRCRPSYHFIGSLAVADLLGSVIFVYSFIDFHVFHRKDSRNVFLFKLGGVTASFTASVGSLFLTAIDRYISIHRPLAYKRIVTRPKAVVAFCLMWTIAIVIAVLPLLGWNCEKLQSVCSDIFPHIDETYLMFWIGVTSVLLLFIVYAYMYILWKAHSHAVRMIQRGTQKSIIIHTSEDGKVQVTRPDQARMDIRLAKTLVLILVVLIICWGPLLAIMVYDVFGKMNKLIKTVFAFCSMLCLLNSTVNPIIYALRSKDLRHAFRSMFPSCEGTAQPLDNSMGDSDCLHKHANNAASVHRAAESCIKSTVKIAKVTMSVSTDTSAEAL
Method: To determine the antagonist activity of test compound, the reaction mixture also contains 0.5 nM of the agonist CP55940 (or 50 nM of methanandamide), and the reversal of the CP55940 (or methanandamide) effect is quantitated with increasing concentration of the test compound. Intracellular cAMP is determined as described above. An IC50 value for the test compound is calculated from the titration curve.
Alternatively, a series of dose response curves for the agonist CP55940 (or methanandamide) is performed with increasing concentration of the test compound in each of the dose response curves, and a Schild analysis is carried to calculate the Kb value which is an estimation of test compound binding affinity.

[3] = molecular target: T2, recombinant human CB1 receptor expressed in CHO cells; test: Cannabinoid Receptor-1 (CB1) Functional Activity Assay (cAMP); format: cell-based; details: forskolin-stimulated cAMP
Method: The functional activation of CB1 receptor is based on recombinant human CB1 receptor expressed in CHO cells (Felder et al, Mol. Pharmacol. 48: 443-450, 1995). To determine the agonist activity or inverse agonist activity of any test compound, 50 ul of CB1-CHO cell suspension are mixed with test compound and 70 ul assay buffer containing 0.34 mM 3-isobutyl-1-methylxanthine and 5.1 uM of forskolin in 96-well plates. The assay buffer is comprised of Earle's Balanced Salt Solution supplemented with 5 mM MgCl2, 1 mM glutamine, 10 mM HEPES, and 1 mg/mL bovine serum albumin. The mixture is incubated at room temperature for 30 minutes, and terminated by adding 30 ul/well of 0.5M HCl. The total intracellular cAMP level is quantitated using the New England Nuclear Flashplate and cAMP radioimmunoassay kit.

[4] = [3H]CP-55940 0.6 nM, CHO cell membranes, read-out: CB1 binding IC50

T1 sequence (P21554 whole entry): as above

functional character at CB1 [2] | EC50 [3] [nM] | IC50 [1, 4] [nM] | Structure (SMILES) | IC50 [1] [nM]
functional inverse agonists | < 20 | 2 | CC(C)(C)C1CC(=O)c2cc(-c3ccc(Cl)cc3)c(-c3ccccc3Cl)nc2O1 (centres unmarked) [Example 12, 2-tert-Butyl-7-(2-chlorophenyl)-6-(4-chlorophenyl)-2,3-dihydro-4H-pyrano[2,3-b]pyridin-4-one] | 
functional inverse agonists | < 20 | 2 | CNC(=O)C(=O)NC1CC(C)(C)Oc2nc(-c3ccc(Cl)cc3Cl)c(-c3ccc(Cl)cc3)cc21 (centres unmarked) [Example 66, N-[6-(4-Chlorophenyl)-7-(2,4-dichlorophenyl)-2,2-dimethyl-3,4-dihydro-2H-pyrano[2,3-b]pyridin-4-yl]-N′-methylethanediamide] | 
functional inverse agonists | < 20 | 2 | CN(C)C(=O)NC1CC(C)(C)Oc2nc(-c3ccc(Cl)cc3Cl)c(-c3ccc(Cl)cc3)cc21 (centres unmarked) [Example 111, N′-[6-(4-chlorophenyl)-7-(2,4-dichlorophenyl)-2,2-dimethyl-3,4-dihydro-2H-pyrano[2,3-b]pyridin-4-yl]-N,N-dimethylurea] | 
functional inverse agonists | < 20 | 2 | CC1(C)CC(Nc2ccccn2)c2cc(-c3ccc(Cl)cc3)c(-c3ccc(Cl)cc3Cl)nc2O1 (centres unmarked) [Example 245, 6-(4-Chlorophenyl)-7-(2,4-dichlorophenyl)-2,2-dimethyl-N-(pyridine-2-yl)-3,4-dihydro-2H-pyrano[2,3-b]pyridin-4-amine] | 
functional inverse agonists | < 20 | 10 | Cc1cc(NC2CC(C)(C)Oc3nc(-c4ccc(Cl)cc4Cl)c(-c4ccc(Cl)cc4)cc32)n[nH]1 (centres unmarked) [Example 246, 6-(4-Chlorophenyl)-7-(2,4-dichlorophenyl)-2,2-dimethyl-N-(5-methyl-1H-pyrazol-3-yl)-3,4-dihydro-2H-pyrano[2,3-b]pyridin-4-amine] | 
functional inverse agonists |  |  | Cc1cc(C(=O)N[C@@H]2CC(C)(C)Oc3nc(-c4ccc(Cl)cc4Cl)c(-c4ccc(Cl)cc4)cc32)n[nH]1 [Example 327, N-[(4R)-6-(4-Chlorophenyl)-7-(2,4-dichlorophenyl)-2,2-dimethyl-3,4-dihydro-2H-pyrano[2,3-b]pyridin-4-yl]-5-methyl-1H-pyrazole-3-carboxamide] | 

Structure (SMILES) | functional character at CB1 [2] | EC50 [3] [nM] | IC50 [1, 4] [nM] | IC50 [1] [nM]
O=C1CC2(CCCCC2)Oc2nc(-c3ccccc3Cl)c(-c3ccc(Cl)cc3)cc21 [Example 4, 7′-(2-Chlorophenyl)-6′-(4-chlorophenyl)spiro[cyclohexane-1,2′-pyrano[2,3-b]pyridin]-4′(3′H)-one] | functional inverse agonists | < 20 |  | 8
C[C@@H](O)C(=O)NC1CC(C)(C)Oc2nc(-c3ccc(Cl)cc3Cl)c(-c3ccc(Cl)cc3)cc21 (stereo partly drawn) [Example 96, (2R)-N-[6-(4-chlorophenyl)-7-(2,4-dichlorophenyl)-2,2-dimethyl-3,4-dihydro-2H-pyrano[2,3-b]pyridin-4-yl]-2-hydroxypropanamide] | functional inverse agonists |  |  | 

— patent US7999107B2, “Substituted pyrano[2,3-B]pyridine derivatives as cannabinoid-1 receptor modulators” (Merck Sharp & Dohme Corp., priority 2007, dated 2011)
